Common to all, as to format: functional, cell-based
Assay [1] concerns Daudi. Put plainly: Cytotoxicity against human Daudi cells after 48 hrs by MTT assay. On the technique in general: Tetrazolium dyes change colour on reduction, which living cells bring about.
Assay [2] relates to MCF7. Put plainly: Cytotoxicity against human MCF7 cells after 48 hrs by MTT assay. As to conditions: MCF7, 48 h.
The test system of assay [3] is A549. Description: Cytotoxicity against human A549 cells after 48 hrs by MTT assay. As to conditions: A549, 48 h.
The test system of assay [4] is A-375. Description: Cytotoxicity against human A375 cells after 48 hrs by MTT assay. As to conditions: A-375, 48 h.
Assay [5] relates to Caco-2. Description: Cytotoxicity against human CaCo2 cells after 48 hrs by MTT assay. As to conditions: Caco-2, 48 h.
The subject of assay [6] is HepG2. Description: Cytotoxicity against human HepG2 cells after 48 hrs by MTT assay. As to conditions: HepG2, 48 h.
Assay [7] concerns HeLa. Description: Cytotoxicity against human HeLa cells after 48 hrs by MTT assay.
The test system of assay [8] is HL-60. Description: Cytotoxicity against human HL60 cells after 48 hrs by MTT assay. The note with it: HL-60, 48 h.
The test system of assay [9] is HCT-15. Description: Cytotoxicity against human HCT15 cells after 48 hrs by MTT assay. The note with it: HCT-15, 48 h.
For assay [10], the system named is LoVo. Put plainly: Cytotoxicity against human multidrug resistant LoVo cells after 48 hrs by MTT assay.
In assay [11] the test system is LoVo. Put plainly: Cytotoxicity against human LoVo cells after 48 hrs by MTT assay.

Each structure is given as a SMILES string.

Usually IC50 stands for the point on the concentration scale where inhibition reaches its midpoint. The low end stands for inhibition by little substance, the high end for a need for much substance. As to `OCP(CO)CCP(CO)CO`, the IC50 in [1] is over 100 µM; in [2] it was over 100 µM; in assay [3], over 100 µM; in assay [4], 73.2 µM; in [5], 84.1 µM; in assay [6] it was 71.7 µM. The IC50 in [7] is over 100 µM; in [8], 83.7 µM; in [9], 91.7 µM.
With `COc1cccc2c1C(=O)c1c(O)c3c(c(O)c1C2=O)C[C@@](O)(C(=O)CO)C[C@@H]3O[C@H]1C[C@H](N)[C@H](O)[C@H](C)O1` [DOXORUBICIN], the half-maximal inhibitory concentration (IC50) in [10] stood at 44.9 µM; in assay [11] it was 1.46 µM.
With `OCP(CO)CO` [TRIS(HYDROXYMETHYL)PHOSPHINE], the IC50 is over 100 µM in assay [1]; 64.2 µM in assay [2]; 72.9 µM in assay [3]; 88.7 µM in assay [4]; over 100 µM in assay [5]; 98.7 µM in assay [6]. For the same molecule, the IC50 was over 100 µM in assay [7], 68.6 µM in assay [8] and over 100 µM in [9].

For the origin of these results see ChEMBL document CHEMBL1142317, “In vitro antitumor activity of the water soluble copper(I) complexes bearing the tris(hydroxymethyl)phosphine ligand” (J Med Chem, 2008).
